# From patent US10681908B2, “Molecules having pesticidal utility, and intermediates, compositions, and processes, related thereto” (Dow AgroSciences LLC, priority 2016, dated 2020)
# Tests used:
# [1] = system: Cabbage Looper (Trichoplusia ni, TRIPNI); assay: Bioassay on Cabbage Looper (CL), 128-well diet tray assay; format: in vivo; settings: 168 h, 50 μg/cm^2 on artificial diet, second instar larvae, five to seven days, 25° C., read-out: CL % Control (or Mortality) rating
# Procedure: (§1) Example A: Bioassays on Beet Armyworm (Spodoptera Exigua, LAPHEG) (“BAW”), Corn Earworm (Helicoverpa zea, HELIZE) (“CEW”), and Cabbage Looper (Trichoplusia ni, TRIPNI) (“CL”)
# (§2) Certain molecules disclosed in this document were tested against BAW, CEW, and CL using procedures described in the following examples. In the reporting of the results, the “BAW, CEW, & CL Rating Table” was used (See Table Section).
# Bioassays on CL were conducted using a 128-well diet tray assay. One to five second instar CL larvae were placed in each well (3 mL) of the diet tray that had been previously filled with 1 mL of artificial diet to which 50 μg/cm^2 of the test molecule (dissolved in 50 μL of 90:10 acetone-water mixture) had been applied (to each of eight wells) and then allowed to dry. Trays were covered with a clear self-adhesive cover and held at 25° C., 14:10 light-dark for five to seven days. Percent mortality was recorded for the larvae in each well; activity in the eight wells was then averaged. The results are indicated in the table entitled “Table ABC: Biological Results” (See Table Section).
# (§3) Bioassays on BAW and CL were conducted according to the procedures outlined in Example A: Bioassays on Beet Armyworm (“BAW”) and Cabbage Looper (“CL”) using the indicated concentrations.
# [2] = system: Beet Armyworm (Spodoptera exigua, LAPHEG); assay: Bioassay on Beet Armyworm (BAW), 128-well diet tray assay; format: in vivo; settings: 168 h, 50 μg/cm^2 on artificial diet, second instar larvae, five to seven days, 25° C., read-out: BAW % Control (or Mortality) rating
# Procedure: as §1, §2
# Bioassays on BAW were conducted using a 128-well diet tray assay. One to five second instar BAW larvae were placed in each well (3 mL) of the diet tray that had been previously filled with 1 mL of artificial diet to which 50 μg/cm^2 of the test molecule (dissolved in 50 μL of 90:10 acetone-water mixture) had been applied (to each of eight wells) and then allowed to dry. Trays were covered with a clear self-adhesive cover and held at 25° C., 14:10 light-dark for five to seven days. Percent mortality was recorded for the larvae in each well; activity in the eight wells was then averaged. The results are indicated in the table entitled “Table ABC: Biological Results” (See Table Section).
# as §3
SMILES,mortality at 50 µg/cm2 [1],mortality at 50 µg/cm2 [2]
"C[C@H](CSCCC#N)NC(=O)c1ccc(/C(F)=C/C(c2cc(Cl)c(Cl)c(Cl)c2)C(F)(F)F)cc1C(F)(F)F (stereo partly drawn) [F128, N—((R)-1-((2-Cyanoethyl)thio)propan-2-yl)-4-((Z)-1,4,4,4-tetrafluoro-3-(3,4,5-trichlorophenyl)but-1-en-1-yl)-2-(trifluoromethyl)benzamide]",50 to 100%,50 to 100%
"C[C@H](CS(C)(=O)=O)NC(=O)c1ccc(/C(F)=C/C(c2cc(Cl)c(Cl)c(Cl)c2)C(F)(F)F)cc1C(F)(F)F (stereo partly drawn) [F87, N—((R)-1-(methylsulfonyl)propan-2-yl)-4-((Z)-1,4,4,4-tetrafluoro-3-(3,4,5-trichlorophenyl)but-1-en-1-yl)-2-(trifluoromethyl)benzamide]",50 to 100%,50 to 100%
"CC(C)(CS(C)(=O)=O)NC(=O)c1ccc(/C(F)=C/C(c2cc(Cl)c(Cl)c(Cl)c2)C(F)(F)F)cc1C(F)(F)F (stereo not shown) [F100, (Z)—N-(2-Methyl-1-(methylsulfonyl)propan-2-yl)-4-(1,4,4,4-tetrafluoro-3-(3,4,5-trichlorophenyl)but-1-en-1-yl)-2-(trifluoromethyl)benzamide]",50 to 100%,50 to 100%
"CCC(F)(F)C(/C=C(\F)c1ccc(C(=O)N[C@H](C)CS(=O)(=O)CC(F)(F)F)c(C(F)(F)F)c1)c1cc(Cl)c(Cl)c(Cl)c1 (stereo partly drawn) [F38, 4-((Z)-1,4,4-Trifluoro-3-(3,4,5-trichlorophenyl)hex-1-en-1-yl)-N—((R)-1-((2,2,2-trifluoroethyl)sulfonyl)propan-2-yl)-2-(trifluoromethyl)benzamide]",50 to 100%,50 to 100%
"C[C@H](C[S+]([O-])CC(F)(F)F)NC(=O)c1ccc(/C(F)=C/C(c2ccc(Cl)c(Cl)c2)C(F)(F)F)cc1Br (stereo partly drawn) [F66, 2-Bromo-4-((Z)-3-(3,4-dichlorophenyl)-1,4,4,4-tetrafluorobut-1-en-1-yl)-N-((2R)-1-((2,2,2-trifluoroethyl)sulfinyl)propan-2-yl)benzamide]",50 to 100%,50 to 100%
"Cc1cc(/C(F)=C/C(c2cc(Cl)c(Cl)c(Cl)c2)C(C)(F)F)ccc1C(=O)N[C@H](C)CSCC(F)(F)F (stereo partly drawn) [F13, 2-Methyl-4-((Z)-1,4,4-trifluoro-3-(3,4,5-trichlorophenyl)pent-1-en-1-yl)-N—((R)-1-((2,2,2-trifluoroethyl)thio)propan-2-yl)benzamide]",50 to 100%,50 to 100%
"C[C@H](CS(=O)(=O)CC(F)(F)F)NC(=O)c1ccc(/C(F)=C/C(c2cc(Cl)c(Cl)c(Cl)c2)C(F)(F)F)cc1Cl (stereo partly drawn) [F11, 2-Chloro-4-((Z)-1,4,4,4-tetrafluoro-3-(3,4,5-trichlorophenyl)but-1-en-1-yl)-N—((R)-1-((2,2,2-trifluoroethyl)sulfonyl)propan-2-yl)benzamide]",50 to 100%,50 to 100%
"C[C@H](CSCC(F)(F)F)NC(=O)c1ccc(/C(F)=C/C(c2ccc(Cl)c(Cl)c2)C(F)(F)F)cc1Br (stereo partly drawn) [F58, 2-Bromo-4-((Z)-3-(3,4-dichlorophenyl)-1,4,4,4-tetrafluorobut-1-en-1-yl)-N—((R)-1-((2,2,2-trifluoroethyl)thio)propan-2-yl)benzamide]",50 to 100%,50 to 100%
"CCSC[C@@H](C)NC(=O)c1ccc(/C(F)=C/C(c2cc(Cl)c(F)c(Cl)c2)C(F)(F)F)cc1C(F)(F)F (stereo partly drawn) [F41, 4-((Z)-3-(3,5-Dichloro-4-fluorophenyl)-1,4,4,4-tetrafluorobut-1-en-1-yl)-N—((R)-1-(ethylthio)propan-2-yl)-2-(trifluoromethyl)benzamide]",50 to 100%,50 to 100%
"C[C@H](C[S+]([O-])CC(C)(F)F)NC(=O)c1ccc(/C(F)=C/C(c2cc(Cl)c(Cl)c(Cl)c2)C(F)(F)F)cc1C(F)(F)F (stereo partly drawn) [F96, N-((2R)-1-((2,2-Difluoropropyl)sulfinyl)propan-2-yl)-4-((Z)-1,4,4,4-tetrafluoro-3-(3,4,5-trichlorophenyl)but-1-en-1-yl)-2-(trifluoromethyl)benzamide]",50 to 100%,50 to 100%
"CC(CNC(=O)c1ccc(/C(F)=C/C(c2cc(Cl)c(Cl)c(Cl)c2)C(F)(F)F)cc1C(F)(F)F)[S+](C)[O-] (stereo not shown) [F90, (Z)—N-(2-(Methylsulfinyl)propyl)-4-(1,4,4,4-tetrafluoro-3-(3,4,5-trichlorophenyl)but-1-en-1-yl)-2-(trifluoromethyl)benzamide]",50 to 100%,50 to 100%
"C[C@H](CS(=O)(=O)CC(F)(F)F)NC(=O)c1ccc(/C(F)=C/C(c2cc(Cl)c(Cl)c(C(F)F)c2)C(F)(F)F)cc1C(F)(F)F (stereo partly drawn) [F70, 4-((Z)-3-(3,4-dichloro-5-(difluoromethyl)phenyl)-1,4,4,4-tetrafluorobut-1-en-1-yl)-N—((R)-1-((2,2,2-trifluoroethyl)sulfonyl)propan-2-yl)-2-(trifluoromethyl)benzamide]",50 to 100%,50 to 100%
"Cc1cc(C(/C=C(\F)c2ccc(C(=O)N[C@H](C)CS(=O)(=O)CC(F)(F)F)c(C(F)(F)F)c2)C(F)(F)F)ccc1Cl (stereo partly drawn) [PF8, 4-((Z)-3-(4-Chloro-3-methylphenyl)-1,4,4,4-tetrafluorobut-1-en-1-yl)-N—((R)-1-((2,2,2-trifluoroethyl)sulfonyl)propan-2-yl)-2-(trifluoromethyl)benzamide]",50 to 100%,50 to 100%
"C=C(C)c1cc(C(/C=C(\F)c2ccc(C(=O)N[C@H](C)CS(=O)(=O)CC(F)(F)F)c(C(F)(F)F)c2)C(F)(F)F)cc(Cl)c1Cl (stereo partly drawn) [F114, 4-((Z)-3-(3,4-Dichloro-5-(prop-1-en-2-yl)phenyl)-1,4,4,4-tetrafluorobut-1-en-1-yl)-N—((R)-1-((2,2,2-trifluoroethyl)sulfonyl)propan-2-yl)-2-(trifluoromethyl)benzamide]",50 to 100%,50 to 100%
"C[C@H](CSCC(F)F)NC(=O)c1ccc(/C(F)=C/C(c2cc(Cl)c(Cl)c(Cl)c2)C(F)(F)F)cc1C(F)(F)F (stereo partly drawn) [F82, N—((R)-1-((2,2-Difluoroethyl)thio)propan-2-yl)-4-((Z)-1,4,4,4-tetrafluoro-3-(3,4,5-trichlorophenyl)but-1-en-1-yl)-2-(trifluoromethyl)benzamide]",50 to 100%,50 to 100%
"C[C@H](CS(=O)(=O)CC(F)(F)F)NC(=O)c1ccc(/C(F)=C/C(c2cc(F)c(F)c(F)c2)C(F)(F)F)cc1C(F)(F)F (stereo partly drawn) [F133, 4-((Z)-1,4,4,4-Tetrafluoro-3-(3,4,5-trifluorophenyl)but-1-en-1-yl)-N—((R)-1-((2,2,2-trifluoroethyl)sulfonyl)propan-2-yl)-2-(trifluoromethyl)benzamide]",50 to 100%,50 to 100%
"O=C(NCC[S+]([O-])CC(F)(F)F)c1ccc(/C(F)=C/C(c2cc(Cl)c(Cl)c(Cl)c2)C(F)(F)F)cc1C(F)(F)F (stereo not shown) [F50, (Z)-4-(1,4,4,4-tetrafluoro-3-(3,4,5-trichlorophenyl)but-1-en-1-yl)-N-(2-((2,2,2-trifluoroethyl)sulfinyl)ethyl)-2-(trifluoromethyl)benzamide]",50 to 100%,50 to 100%
